Experiment [1] has as its target T1, hM3 (human Muscarinic receptor subtype 3) (Homo sapiens, UniProt P20309).
T1 construct: expressed in transfected cells; host or cells: CHO cells (Chinese hamster ovary cells, ATCC)
Put plainly: Human M3 calcium mobilization FLIPR assay. The note with it: hM3 expressed in CHO cells, intracellular Ca2+ release, read-out: hM3 EC50. Format: cell-based. Here is the method:
Human M1, rat M1, human M3 and human M5 Calcium Mobilization FLIPR™ Assay
The compound activity in the present invention (EC50 or IC50) is measured using a 384 plate-based imaging assay that monitors drug induced intracellular Ca^2+ release in whole cells. Activation of hM1 (human Muscarinic receptor subtype 1, gene bank access NM_000738), rM1 (rat Muscarinic receptor subtype 1, gene bank access NM_080773), hM3 (human Muscarinic receptor subtype 3, gene bank access NM_000740NM_000740) and hM5 (human Muscarinic receptor subtype 5, gene bank access NM_0121258), receptors expressed in CHO cells (Chinese hamster ovary cells, ATCC) is quantified in a Molecular Devices FLIPR II™ instrument as an increase in fluorescent signal. Inhibition of hM3 and hM5 by compounds is determined by the decrease in fluorescent signal in response to 2 nM acetylcholine activation.
Prior to experiment, the cell culture medium is removed from the plates by inversion. […] Plates are incubated at 37° C. for 60 minutes prior to start the experiment. The incubation is terminated by washing the cells four times in assay buffer, leaving a residual 25 μl buffer per well. Cell plates are then transferred to the FLIPR, ready for compound additions.
The day of experiment, acetylcholine and compounds are diluted in assay buffer in three-fold concentration range (10 points serial dilution) for addition by FLIPR instrument. For all calcium assays, a baseline reading is taken for 10 seconds followed by the addition of 12.5 μl of compounds, resulting in a total well volume of 37.5 μl. Data is collected every second for 60 pictures and then every 6 seconds for 20 pictures prior to the addition of agonist. For hM3 and hM5, before agonist addition, a second baseline reading is taken for 10 seconds followed by the addition of 12.5 μl of agonist or buffer, producing a final volume of 50 μl. After agonist stimulation, the FLIPR continues to collect data every second for 60 pictures and then every 6 seconds for 20 pictures. The fluorescence emission is read using filter 1 (emission 510-570 nm) by the FLIPR on board CCD camera.
Calcium mobilization output data are calculated as the maximal relative fluorescence unit (RFU) minus the minimal value for both compound and agonist reading frame (except for hM1 and rM1 using only the maximal RFU). Data are analyzed using sigmoidal fits of a non-linear curve-fitting program (XLfit version 4.2.2 Excel add-in version 4.2.2 build 18 math 1Q version 2.1.2 build 18). All pEC50 and plC50 values are reported as arithmetic means ±standard error of mean of ‘n’ independent experiments.
In general terms: Calcium assays in cells follow changes in intracellular calcium, usually with a dye or a luminescent sensor.

Experiment [2] deals with T2, cloned human M4 receptor (human Muscarinic receptor subtype 4) (Homo sapiens, UniProt P08173).
T2 construct: purchased Perkin-Elmer RBHM4M; host or cells: Chinese hamster ovary cells (CHO) membranes
T2 sequence (P08173 1-479): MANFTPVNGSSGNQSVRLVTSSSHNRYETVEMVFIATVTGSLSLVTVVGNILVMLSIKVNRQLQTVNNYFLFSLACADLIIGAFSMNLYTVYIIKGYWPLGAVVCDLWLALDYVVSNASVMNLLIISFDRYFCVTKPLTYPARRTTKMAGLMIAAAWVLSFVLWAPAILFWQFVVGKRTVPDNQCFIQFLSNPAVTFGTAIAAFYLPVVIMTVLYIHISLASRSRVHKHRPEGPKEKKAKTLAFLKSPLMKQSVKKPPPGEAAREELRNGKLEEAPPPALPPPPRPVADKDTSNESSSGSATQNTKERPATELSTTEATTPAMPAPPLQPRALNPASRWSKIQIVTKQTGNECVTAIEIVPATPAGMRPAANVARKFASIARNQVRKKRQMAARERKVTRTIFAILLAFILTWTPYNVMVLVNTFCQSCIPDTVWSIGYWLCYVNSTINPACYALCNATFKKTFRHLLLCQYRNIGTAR
Put plainly: hM4 receptor GTPγS binding. The settings on record: CHO cell membranes expressing hM4; [35S]GTPγS binding; read-out: hM4 EC50. Format: biochemical. Here is the method: hM4 Receptor GTPγS Binding
Membranes produced from Chinese hamster ovary cells (CHO) expressing the cloned human M4 receptor (human Muscarinic receptor subtype 4, gene bank access NM_000741), are obtained from Perkin-Elmer (RBHM4M). The membranes are thawed at 37° C., passed 3 times through a 23-gauge blunt-end needle, diluted in the GTPγS binding buffer (50 mM Hepes, 20 mM NaOH, 100 mM NaCl, 1 mM EDTA, 5 mM MgCl2, pH 7.4, 100 μM DTT). The EC50, IC50 and Emax of the compounds of the invention are evaluated from 10-point dose-response curves (three fold concentration range) done in 60 μl in 384-well non-specific binding surface plate (Corning). Ten microliters from the dose-response curves plate (5× concentration) are transferred to another 384 well plate containing 25 μl of the following: 10 μg of hM4 membranes, 500 μg of Flashblue beads (Perkin-Elmer) and GDP 40 μM. An additional 15 μl containing 3.3× (60,000 dpm) of GTPγ^35S (0.4 nM final) are added to the wells resulting in a total well volume of 50 μl. Basal and maximal stimulated [^35S]GTPγS binding are determined in absence and presence of 30 μM final of acetylcholine agonist. The membranes/beads mix are pre-incubated for 15 minutes at room temperature with 40 μM GDP prior to distribution in plates (20 μM final). The reversal of acetylcholine-induced stimulation (10 μM final) of [^35S]GTPγS binding is used to assay the antagonist properties (IC50) of the compounds. The plates are incubated for 60 minutes at room temperature then centrifuged at 400 rpm for 5 minutes. The radioactivity (cpm) is counted in a Trilux (Perkin-Elmer).
Values of EC50, IC50 and Emax are obtained using sigmoidal fits of a non-linear curve-fitting program (XLfit version 4.2.2 Excel add-in version 4.2.2 build 18 math 1Q version 2.1.2 build 18) of percent stimulated [^35S]GTPγS binding vs. log(molar ligand). All pEC50 and plC50 values are reported as arithmetic means ±standard error of mean of ‘n’ independent experiments.
On the technique in general: Binding of GTPγS marks nucleotide exchange on a G protein.

The structures appear in SMILES notation. Where only a bound is given, the exact number is not on record here.

T1 sequence (P20309 whole entry): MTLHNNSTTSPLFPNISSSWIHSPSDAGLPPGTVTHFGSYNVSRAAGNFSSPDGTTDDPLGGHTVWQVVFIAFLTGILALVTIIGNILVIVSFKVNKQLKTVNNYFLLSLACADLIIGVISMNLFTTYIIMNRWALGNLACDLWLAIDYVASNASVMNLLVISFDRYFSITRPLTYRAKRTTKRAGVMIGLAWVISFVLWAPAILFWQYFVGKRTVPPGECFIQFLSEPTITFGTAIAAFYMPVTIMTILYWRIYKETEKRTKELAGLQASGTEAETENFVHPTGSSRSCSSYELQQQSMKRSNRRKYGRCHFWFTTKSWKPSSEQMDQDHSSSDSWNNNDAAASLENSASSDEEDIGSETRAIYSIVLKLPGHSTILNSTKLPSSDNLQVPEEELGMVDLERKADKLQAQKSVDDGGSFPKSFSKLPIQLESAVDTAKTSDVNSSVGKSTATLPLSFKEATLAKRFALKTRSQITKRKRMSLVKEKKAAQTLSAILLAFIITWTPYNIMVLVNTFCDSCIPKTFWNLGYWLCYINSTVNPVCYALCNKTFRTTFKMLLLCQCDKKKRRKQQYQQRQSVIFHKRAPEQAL

Broadly, the EC50 is the concentration needed to bring the measured effect to its halfway point. For the molecule `COC(=O)N1CCC(C)(N2CCC(n3c(=O)[nH]c4ccc(F)cc43)CC2)C1` (single isomer, unassigned) [Example 52, methyl 3-(4-(6-fluoro-2-oxo-2,3-dihydro-1H-benzo[d]imidazol-1-yl)piperidin-1-yl)-3-methylpyrrolidine-1-carboxylate], the EC50 in experiment [1] was greater than 40 µM; in experiment [2], 5.09 µM.

As to `CC1(N2CCC(n3c(=O)[nH]c4ccc(F)cc43)CC2)CCN(C(=O)OCCF)C1` (single isomer, unassigned) [Example 53, 2-fluoroethyl 3-(4-(6-fluoro-2-oxo-2,3-dihydro-1H-benzo[d]imidazol-1-yl)piperidin-1-yl)-3-methylpyrrolidine-1-carboxylate], the values for the EC50 in experiment [1] and in experiment [2] were greater than 40 µM and 5.57 µM, respectively.

With `CCOC(=O)N1CCC(C)(N2CCC(n3c(=O)[nH]c4cc(F)c(C)cc43)CC2)C1` (single isomer, unassigned) [Example 55, ethyl 3-(4-(5-fluoro-6-methyl-2-oxo-2,3-dihydro-1H-benzo[d]imidazol-1-yl)piperidin-1-yl)-3-methylpyrrolidine-1-carboxylate], the concentration giving a half-maximal response (EC50) in experiment [1] was greater than 40 µM; in experiment [2], 1.71 µM.

Consider `CCOC(=O)N1CCC(C)(N2CCC(n3c(=O)[nH]c4cc(F)c(C)cc43)CC2)C1` (single isomer, unassigned) [Example 56, ethyl 3-(4-(5-fluoro-6-methyl-2-oxo-2,3-dihydro-1H-benzo[d]imidazol-1-yl)piperidin-1-yl)-3-methylpyrrolidine-1-carboxylate], for which the EC50 is greater than 3.54 µM in experiment [1] and 0.238 µM in experiment [2].

Regarding `CCOC(=O)N1CCC(C)(N2CCC(n3c(=O)[nH]c4cc(F)c(F)cc43)CC2)C1` (single isomer, unassigned) [Example 57, ethyl 3-(4-(5,6-difluoro-2-oxo-2,3-dihydro-1H-benzo[d]imidazol-1-yl)piperidin-1-yl)-3-methylpyrrolidine-1-carboxylate], the EC50 in experiment [1] amounted to 3.55 µM; in experiment [2], 2.2 µM.

As for `CCOC(=O)N1CCC(C)(N2CCC(n3c(=O)[nH]c4cc(F)c(F)cc43)CC2)C1` (single isomer, unassigned) [Example 58, ethyl 3-(4-(5,6-difluoro-2-oxo-2,3-dihydro-1H-benzo[d]imidazol-1-yl)piperidin-1-yl)-3-methylpyrrolidine-1-carboxylate], the figures for the 50% effective concentration (EC50) in experiment [1] and in experiment [2] were greater than 40 µM and 9.81 µM, respectively.

In the case of `COC(=O)N1CCC(C)(N2CCC(n3c(=O)[nH]c4cc(F)c(F)cc43)CC2)C1` (single isomer, unassigned) [Example 60, methyl 3-(4-(5,6-difluoro-2-oxo-2,3-dihydro-1H-benzo[d]imidazol-1-yl)piperidin-1-yl)-3-methylpyrrolidine-1-carboxylate], the concentration for a half-maximal effect (EC50) in experiment [1] was greater than 40 µM; in experiment [2] it was 5.08 µM.

In the case of `CC1(N2CCC(n3c(=O)[nH]c4cc(F)c(F)cc43)CC2)CCN(C(=O)OCCF)C1` (single isomer, unassigned) [Example 61, 2-fluoroethyl 3-(4-(5,6-difluoro-2-oxo-2,3-dihydro-1H-benzo[d]imidazol-1-yl)piperidin-1-yl)-3-methylpyrrolidine-1-carboxylate], the EC50 in experiment [1] is greater than 40 µM; in experiment [2], 4.42 µM.

`COC(=O)N1CCC(C)(N2CCC(N3C(=O)Cc4ccc(C)cc43)CC2)C1` (single isomer, unassigned) [Example 67, methyl 3-methyl-3-(4-(6-methyl-2-oxoindolin-1-yl)piperidin-1-yl)pyrrolidine-1-carboxylate]: the EC50 was greater than 33.5 µM in experiment [1] and 15.1 µM in experiment [2].

`COC(=O)N1CCC(C)(N2CCC(N3C(=O)Cc4ccc(C)cc43)CC2)C1` (single isomer, unassigned) [Example 68, methyl 3-methyl-3-(4-(6-methyl-2-oxoindolin-1-yl)piperidin-1-yl)pyrrolidine-1-carboxylate]: the concentration giving a half-maximal response (EC50) in experiment [1] was determined as 2.33 µM; in experiment [2], 6.21 µM.

For the molecule `CCOC(=O)N1CCC(C)(N2CCC(N3C(=O)Cc4ccc(C)cc43)CC2)C1` (single isomer, unassigned) [Example 69, ethyl 3-methyl-3-(4-(6-methyl-2-oxoindolin-1-yl)piperidin-1-yl)pyrrolidine-1-carboxylate], the half-maximal effective concentration (EC50) in experiment [1] is greater than 40 µM; in experiment [2], 8.92 µM.

Consider `CCOC(=O)N1CCC(C)(N2CCC(N3C(=O)Cc4ccccc43)CC2)C1` (single isomer, unassigned) [Example 72, ethyl 3-methyl-3-(4-(2-oxoindolin-1-yl)piperidin-1-yl)pyrrolidine-1-carboxylate], for which the EC50 in experiment [1] is greater than 40 µM; in experiment [2], greater than 90 µM.

Regarding `CCOC(=O)N1CCC(C)(N2CCC(N3C(=O)Cc4ccccc43)CC2)C1` (single isomer, unassigned) [Example 73, ethyl 3-methyl-3-(4-(2-oxoindolin-1-yl)piperidin-1-yl)pyrrolidine-1-carboxylate], the figures for the EC50 in experiment [1] and in experiment [2] were greater than 40 µM and greater than 90 µM, respectively.

Consider `CCOC(=O)N1CCC(C)(N2CCC(N3C(=O)Cc4ccc(F)cc43)CC2)C1` (single isomer, unassigned) [Example 74, ethyl 3-(4-(6-fluoro-2-oxoindolin-1-yl)piperidin-1-yl)-3-methylpyrrolidine-1-carboxylate], for which the concentration giving a half-maximal response (EC50) in experiment [1] was greater than 40 µM; in experiment [2] it was 3.6 µM.

For `CCOC(=O)N1CCC(C)(N2CCC(N3C(=O)Cc4ccc(F)cc43)CC2)C1` (single isomer, unassigned) [Example 75, ethyl 3-(4-(6-fluoro-2-oxoindolin-1-yl)piperidin-1-yl)-3-methylpyrrolidine-1-carboxylate], the half-maximal effective concentration (EC50) was greater than 40 µM in experiment [1] and greater than 18.9 µM in experiment [2].

As to `CCOC(=O)N1CCC(C)(N2CCC(N3C(=O)Cc4cc(F)ccc43)CC2)C1` (single isomer, unassigned) [Example 79, ethyl 3-(4-(5-fluoro-2-oxoindolin-1-yl)piperidin-1-yl)-3-methylpyrrolidine-1-carboxylate], the EC50 in experiment [1] is greater than 40 µM; in experiment [2], 4.33 µM.

These data come from patent US20090221642A1, “MUSCARINIC RECEPTOR AGONISTS, COMPOSITIONS, METHODS OF TREATMENT THEREOF, AND PROCESSES FOR PREPARATION THEREOF-176” (AstraZeneca AB, priority 2008, published 2009).
